Where two headings read alike, the source gives them in different places.
How the values were obtained:
α2A receptor = target: T1, α2A receptor (Homo sapiens, UniProt P08913); test: Competition binding, [3H]rauwolscine, human α2A receptor
T1 construct: host or cells: LM(tk-) cells, line L-α2A
T1 sequence (P08913 1-465): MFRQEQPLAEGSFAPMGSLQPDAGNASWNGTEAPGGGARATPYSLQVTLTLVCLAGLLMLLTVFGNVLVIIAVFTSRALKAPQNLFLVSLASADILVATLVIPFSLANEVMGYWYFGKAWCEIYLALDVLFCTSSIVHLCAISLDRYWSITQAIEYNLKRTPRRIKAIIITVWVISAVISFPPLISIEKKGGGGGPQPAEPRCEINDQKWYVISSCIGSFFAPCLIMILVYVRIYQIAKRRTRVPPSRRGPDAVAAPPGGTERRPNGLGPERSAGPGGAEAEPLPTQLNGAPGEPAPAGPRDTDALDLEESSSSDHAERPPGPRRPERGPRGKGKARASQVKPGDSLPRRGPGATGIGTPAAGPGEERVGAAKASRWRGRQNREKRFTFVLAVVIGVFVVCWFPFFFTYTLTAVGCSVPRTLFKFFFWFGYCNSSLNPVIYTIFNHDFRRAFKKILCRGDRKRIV
Method in brief: (§1)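 Cell lysates from stably transfected LM(tk−) lines are resuspended in 25 mM glycylglycine (pH 7.6 at room temperature), incubated to equilibrium with 0.5 nM [3H]rauwolscine plus competitor, then filtered through GF/B filters; 10 μM phentolamine defines nonspecific binding.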

[1] = target: T2, α1B Human Adrenergic Receptor (Homo sapiens, UniProt P35368); test: Radioligand binding, [3H]prazosin, cloned human α1B adrenergic receptor; conditions: LM(tk-) cell membranes
T2 construct: The entire coding region of α1B (1563 bp); expressed in transfected cells
T2 sequence (P35368 1-520): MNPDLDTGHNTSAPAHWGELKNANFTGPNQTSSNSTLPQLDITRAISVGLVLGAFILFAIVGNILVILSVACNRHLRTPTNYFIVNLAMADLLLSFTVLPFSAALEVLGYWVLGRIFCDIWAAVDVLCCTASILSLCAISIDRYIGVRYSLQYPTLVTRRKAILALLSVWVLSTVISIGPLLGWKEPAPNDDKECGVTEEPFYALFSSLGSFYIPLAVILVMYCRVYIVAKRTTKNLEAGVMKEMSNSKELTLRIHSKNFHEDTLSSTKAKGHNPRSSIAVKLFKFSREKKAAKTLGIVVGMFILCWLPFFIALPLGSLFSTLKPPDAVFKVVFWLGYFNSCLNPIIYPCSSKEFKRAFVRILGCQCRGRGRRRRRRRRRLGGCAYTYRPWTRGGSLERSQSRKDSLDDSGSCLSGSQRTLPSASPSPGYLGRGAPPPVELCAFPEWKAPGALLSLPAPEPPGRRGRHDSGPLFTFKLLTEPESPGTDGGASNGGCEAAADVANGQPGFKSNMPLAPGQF
Method in brief: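 Membranes from stably transfected LM(tk−) cells, resuspended in 50 mM Tris-HCl, 1 mM MgCl2, 0.1% ascorbic acid, pH 7.5, were incubated with 0.5 nM [3H]prazosin for 20 min at 37° C. Nonspecific binding defined with 10 μM phentolamine; bound ligand separated by GF/B filtration.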

α2B receptor = target: T3, α2B receptor (Homo sapiens, UniProt P18089); test: Competition binding, [3H]rauwolscine, human α2B receptor
T3 construct: host or cells: LM(tk-) cells, line L-NGC-α2B
T3 sequence (P18089 1-450): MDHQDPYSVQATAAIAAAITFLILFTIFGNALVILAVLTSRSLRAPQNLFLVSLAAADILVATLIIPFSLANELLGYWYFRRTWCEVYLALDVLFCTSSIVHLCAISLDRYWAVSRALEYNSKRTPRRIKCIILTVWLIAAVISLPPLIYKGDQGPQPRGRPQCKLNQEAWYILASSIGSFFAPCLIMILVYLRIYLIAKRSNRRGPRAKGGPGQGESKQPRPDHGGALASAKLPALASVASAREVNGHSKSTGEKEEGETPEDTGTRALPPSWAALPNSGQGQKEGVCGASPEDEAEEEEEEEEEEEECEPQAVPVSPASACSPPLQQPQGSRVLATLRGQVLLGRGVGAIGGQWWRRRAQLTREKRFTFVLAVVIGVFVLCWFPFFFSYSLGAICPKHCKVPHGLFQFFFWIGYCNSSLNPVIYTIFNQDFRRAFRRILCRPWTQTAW
Method in brief: as §1

[2] = [3H]rauwolscine, human α2A receptor, LM(tk-) cells, read-out: PKi alpha-2 2a (converted)
[3] = PKi alpha-1 1b, cloned human α1B receptor
[4] = PKi alpha-2 2b, [3H]rauwolscine, human α2B receptor, LM(tk-) cells
[5] = [3H]rauwolscine, human receptor, LM(tk-) cell lysates, mean, read-out: PKi alpha-2 2a (converted)
[6] = cloned human receptor, mean, read-out: PKi alpha-1 1b (converted)
[7] = [3H]rauwolscine, human receptor, LM(tk-) cell lysates, mean, read-out: PKi alpha-2 2b (converted)
[8] = PKi alpha-1 1b, cloned human receptor, mean
[9] = PKi alpha-2 2b, [3H]rauwolscine, human receptor, LM(tk-) cell lysates, mean
[10] = cloned human α1B receptor, read-out: PKi alpha-1 1b (converted)
[11] = [3H]rauwolscine, human α2B receptor, LM(tk-) cells, read-out: PKi alpha-2 2b (converted)

CCC1=C(C(=O)NCCOC)C(c2ccc([N+](=O)[O-])cc2)C(C(=O)NCCCN2CCC(c3ccccc3)(c3ccccc3)CC2)=C(COC)N1 (centres unmarked) [Example 247, 6-Ethyl-1,4-dihydro-5-N-((2-methoxy)ethyl)carboxamido-2-(methyloxy)methyl-4-(4-nitro)phenyl-3-(N-(3-(4,4-diphenylpiperidin-1-yl)propyl)) carboxamidopyridine]
Ki (α2A receptor; [2]): 589 nM | Ki [1, 3]: 912 nM | Ki (α2B receptor; [4]): 479 nM | melting point: 70 °C (dec.)

CCC1=C(C(=O)NC)C(c2ccc([N+](=O)[O-])cc2)C(C(=O)NCCCN2CCC(C(=O)OC)(c3ccccc3)CC2)=C(CCCCOC)N1 (centres unmarked) [Example 174, 6-Ethyl-1,4-dihydro-2-(4-methoxybutyl)-3-{N-[3-(4-methoxycarbonyl-4-phenylpiperidin-1-yl)propyl]}carboxamido-5-(N-methyl)carboxamido-4-(4-nitrophenyl)pyridine]
Ki (α2A receptor; [5]): 2000 nM | Ki [1, 6]: 1910 nM | Ki (α2B receptor; [7]): 955 nM | melting point: 71 to 74 °C

COC(=O)C1(c2ccccc2)CCN(CCCNC(=O)C2=C(CCCCN)NC(C)=C(C(C)=O)C2c2ccc([N+](=O)[O-])cc2)CC1 (centres unmarked) [Example 178, 5-Acetyl-2-(4-aminobutyl)-1,4-dihydro-3-{N-[3-(4-methoxycarbonyl-4-phenylpiperidin-1-yl)propyl]}carboxamido-6-methyl-4-(4-nitrophenyl) pyridine]
Ki (α2A receptor; [5]): 912 nM | Ki [1, 6]: 417 nM | Ki (α2B receptor; [7]): 759 nM | melting point: 62 to 65 °C

CNC(=O)C1=C(C)NC(C)=C(C(=O)NCCCN2CCC(c3ccccc3)(c3ccccc3)CC2)C1c1ccc2c(c1)OCCO2 (centres unmarked) [Example 163]
Ki (α2A receptor; [5]): 1170 nM | Ki [1, 8]: 1020 nM | Ki (α2B receptor; [9]): 1700 nM | melting point: 115 to 116 °C

CCC1=C(C(=O)NC)C(c2ccc([N+](=O)[O-])cc2)C(C(=O)NCCCN2CCC(c3ccccc3)(c3ccccc3)CC2)=C(CCCCN)N1 (centres unmarked) [Example 172, 2-(4-Aminobutyl)-6-ethyl-1,4-dihydro-5-(N-methyl)carboxamido-4-(4-nitrophenyl)-3-{N-[3-(4,4-diphenylpiperidin-1-yl)propyl]}carboxamidopyridine]
Ki (α2A receptor; [5]): 2340 nM | Ki [1, 8]: 617 nM | Ki (α2B receptor; [9]): 3470 nM | melting point: 105 to 109 °C

CC(=O)C1=C(C)NC(COCCN)=C(C(=O)NCCCN2CCC(c3ccccc3)(c3ccccc3)CC2)C1c1ccc2c(c1)OCO2 (centres unmarked) [Example 239, 5-Acetyl-2-((2-aminoethyl)oxy)methyl-1,4-dihydro-6-methyl-4-(3,4-methylenedioxy)phenyl-3-(N-(3-(4,4-dipheylpiperidin-1-yl)propyl))carboxamidopyridine]
Ki (α2A receptor; [2]): 832 nM | Ki [1, 3]: 257 nM | Ki (α2B receptor; [4]): 759 nM | melting point: 80 °C (dec.)

CCNC(=O)C1=C(CC)NC(CC)=C(C(=O)NCCCN2CCC(C(=O)OC)(c3ccccc3)CC2)C1c1ccc([N+](=O)[O-])cc1 (centres unmarked) [Example 180, 2,6-Diethyl-1,4-dihydro-5-(N-ethyl)carboxamido-3-{N-[3-(4-methoxycarbonyl-4-phenylpiperidin-1-yl)propyl]}carboxamido-4-(4-nitrophenyl)pyridine]
Ki (α2A receptor): 6920 nM | Ki [1, 6]: 851 nM | Ki (α2B receptor; PKi alpha-2 2b): 3630 nM | melting point: 217 °C (dec.)

CCC1=C(C(=O)NC)C(c2ccc([N+](=O)[O-])cc2)C(C(=O)NCCCN2CCC(c3ccccc3)(c3ccccc3)CC2)=C(CCCCOC)N1 (centres unmarked) [Example 173, 6-Ethyl-1,4-dihydro-2-(4-methoxybutyl)-5-(N-methyl)carboxamido-4-(4-nitrophenyl)-3-{N-[3-(4,4-diphenylpiperidin-1-yl)propyl]}carboxamidopyridine]
Ki (α2A receptor; [5]): 269 nM | Ki [1, 8]: 427 nM | Ki (α2B receptor; [9]): 955 nM | melting point: 98 to 102 °C

CCC1=C(C(=O)NN2CCOCC2)C(c2ccc([N+](=O)[O-])cc2)C(C(=O)NCCCN2CCC(c3ccccc3)(c3ccccc3)CC2)=C(COC)N1 (centres unmarked) [Example 248, 6-Ethyl-1,4-dihydro-2-((methyl)oxy)methyl-5-N-(morpholin-4yl)carboxamido-4-(4-nitro)phenyl-3-(N-(3-(4,4-diphenylpiperidin-1-yl)propyl))carboxamidopyridine]
Ki (α2A receptor; [2]): 1000 nM | Ki [1, 10]: 1510 nM | Ki (α2B receptor; [11]): 1150 nM | melting point: 112 °C (dec.)

CCC1=C(C(N)=O)C(c2ccc([N+](=O)[O-])cc2)C(C(=O)NCCCN2CCC(C(=O)OC)(c3ccccc3)CC2)=C(CCCCN=[N+]=[N-])N1 (centres unmarked) [Example 165, 2-(4-Azidobutyl)-3-{N-[3-(4-methoxycarbonyl-4-phenylpiperidin-1-yl)propyl]}carboxamido-5-carboxamido-6-ethyl-1,4-dihydro-4-(4-nitrophenyl)pyridine]
Ki (α2A receptor; [5]): 3020 nM | Ki [1, 6]: 575 nM | Ki (α2B receptor; [7]): 1950 nM | melting point: 74 to 77 °C

CCOC(=O)C1(c2ccccc2)CCN(CCCNC(=O)C2=C(COC)NC(CC)=C(C(=O)O)C2c2ccc([N+](=O)[O-])cc2)CC1 (centres unmarked) [Example 240, 3-(N-3-(4-Ethoxycarbonyl-4-phenylpiperidin-1-yl)propyl)carboxamido-6-ethyl-1,4-dihydro-2-(methyloxy)methyl-4-(4-nitro)phenylpyridine-5-carboxylic Acid]
Ki (α2A receptor): 18600 nM | Ki [1, 10]: 4470 nM | Ki (α2B receptor; PKi alpha-2 2b): 6310 nM | melting point: 116 to 126 °C

CCOC(=O)C1(c2ccccc2)CCN(CCCNC(=O)C2=C(COCCN)NC(C)=C(C(C)=O)C2c2ccc3c(c2)OCO3)CC1 (centres unmarked) [Example 244, 5-Acetyl-2-((2-aminoethyl)oxy)methyl-3-(N-(3-(4-ethoxycarbonyl-4-phenylpiperidin-1-yl)propyl)) carboxamido-1,4-dihydro-6-methyl-4-(3,4-methylenedioxy) phenylpyridine]
Ki (α2A receptor; [2]): 1020 nM | Ki [1, 10]: 513 nM | Ki (α2B receptor; [11]): 2140 nM | melting point: 55 °C (dec.)

CCC1=C(C(N)=O)C(c2ccc([N+](=O)[O-])cc2)C(C(=O)NCCCN2CCC(C(=O)OC)(c3ccccc3)CC2)=C(CC)N1 (centres unmarked) [Example 200]
Ki (α2A receptor): 5500 nM | Ki [1, 6]: 2000 nM | Ki (α2B receptor; PKi alpha-2 2b): 1070 nM | melting point: 112 to 114 °C

CCOC(=O)C1(c2ccccc2)CCN(CCCNC(=O)C2=C(COCCN)NC(CC)=C(C(N)=O)C2c2ccc([N+](=O)[O-])cc2)CC1 (centres unmarked) [Example 193, 2-[(2-Aminoethoxy)methyl]-5-carboxamido-3-{N-[3-(4-ethoxycarbonyl-4-phenylpiperidin-1-yl)propyl]}carboxamido-1,4-dihydro-6-ethyl-4-(4-nitrophenyl)pyridine]
Ki (α2A receptor; [5]): 1020 nM | Ki [1, 6]: 1740 nM | Ki (α2B receptor; [7]): 2400 nM | melting point: 87 to 89 °C
